Assay results reported in the Kinase Knowledgebase extract (Sharma et al. 2016).

Target: PIK3CG (human) (UniProt P48736)
Test: Inhibition of PIK3CG Kinase Activity

Sequence of PIK3CG (human) (P48736 whole entry, looked up): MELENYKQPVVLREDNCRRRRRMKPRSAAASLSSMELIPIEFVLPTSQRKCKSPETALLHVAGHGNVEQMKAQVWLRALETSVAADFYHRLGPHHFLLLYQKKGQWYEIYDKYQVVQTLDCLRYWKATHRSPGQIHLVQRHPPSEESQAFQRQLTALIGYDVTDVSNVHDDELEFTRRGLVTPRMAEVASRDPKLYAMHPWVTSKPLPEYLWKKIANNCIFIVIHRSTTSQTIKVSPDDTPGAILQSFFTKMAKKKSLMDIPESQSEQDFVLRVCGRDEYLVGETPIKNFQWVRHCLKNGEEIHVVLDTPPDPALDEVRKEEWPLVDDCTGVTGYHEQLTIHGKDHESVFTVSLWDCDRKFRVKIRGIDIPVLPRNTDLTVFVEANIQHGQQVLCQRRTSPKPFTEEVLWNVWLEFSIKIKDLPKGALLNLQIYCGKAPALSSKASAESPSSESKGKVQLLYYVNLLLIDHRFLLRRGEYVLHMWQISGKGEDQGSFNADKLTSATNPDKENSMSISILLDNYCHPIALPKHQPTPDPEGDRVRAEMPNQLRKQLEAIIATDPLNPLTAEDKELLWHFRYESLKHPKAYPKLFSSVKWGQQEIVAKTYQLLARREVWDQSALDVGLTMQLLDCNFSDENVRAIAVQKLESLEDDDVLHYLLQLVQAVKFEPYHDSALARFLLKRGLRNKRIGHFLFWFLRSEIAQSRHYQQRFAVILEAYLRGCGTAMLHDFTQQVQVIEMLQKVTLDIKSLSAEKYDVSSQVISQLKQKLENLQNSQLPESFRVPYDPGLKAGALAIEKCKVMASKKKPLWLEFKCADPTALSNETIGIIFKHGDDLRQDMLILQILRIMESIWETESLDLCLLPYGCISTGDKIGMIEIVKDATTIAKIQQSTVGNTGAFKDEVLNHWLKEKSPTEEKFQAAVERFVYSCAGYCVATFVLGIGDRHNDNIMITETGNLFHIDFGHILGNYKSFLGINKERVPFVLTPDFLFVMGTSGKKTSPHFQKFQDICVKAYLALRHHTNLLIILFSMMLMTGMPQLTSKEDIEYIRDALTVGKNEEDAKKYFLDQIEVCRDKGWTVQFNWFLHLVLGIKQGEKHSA

COc1cc(-c2ccc3c(n2)[C@@H](C)N(c2ccn(C[C@@H](C)O)n2)C3=O)cnc1OC and COc1cc(-c2ccc3c(n2)[C@@H](C)N(c2ccn(C[C@H](C)O)n2)C3=O)cnc1OC cannot be ordered by Ki: under 100 nM for the first, under 100 nM for the second.

COc1cc(-c2ccc3c(n2)CN(c2cnn(CC#N)c2)C3=O)cnc1OC and COc1cc(-c2ccc3c(n2)CN(c2cnn(Cc4ccncc4)c2)C3=O)cnc1OC cannot be ordered by Ki: under 100 nM for the first, under 100 nM for the second.

COc1cncc(-c2cc(C)c3c(n2)C(C)N(c2cn(C)cn2)C3=O)c1 (configuration not stated) and COc1cncc(-c2cc(C)c3c(n2)C(C)N(c2ccn(CC(C)(C)O)n2)C3=O)c1 (configuration not stated) cannot be ordered by Ki: under 100 nM for the first, under 100 nM for the second.

Cc1cc(-c2cncc(C(=O)NC(C)C)c2)nc2c1C(=O)N(c1cnn(CC(F)(F)F)c1)C2(C)C and CCNC(=O)c1cncc(-c2cc(C)c3c(n2)C(C)(C)N(c2cnn(CC(F)(F)F)c2)C3=O)c1 cannot be ordered by Ki: under 100 nM for the first, under 100 nM for the second.

First: COc1cc(-c2ccc3c(c2)CN(c2cccc(C(N)=O)c2)C3=O)cnc1OC
Second: COc1cc(-c2ccc3c(c2)CN(c2cccc(C(C)=O)c2)C3=O)cnc1OC
The Ki of the first is lower: under 100 nM for the first, 100 to 490 nM for the second.

COCc1cc(N2Cc3nc(-c4cnc(OC)c(OC)c4)ccc3C2=O)nn1CC(F)(F)F and CCc1cc(N2Cc3nc(-c4cnc(OC)c(OC)c4)ccc3C2=O)nn1CC cannot be ordered by Ki: under 100 nM for the first, under 100 nM for the second.

COc1cc(-c2cc(C)c3c(n2)CN(c2cnn(C4CC4)c2)C3=O)cnc1OC and COc1ncc(-c2cc(C)c3c(n2)CN(c2cnn(C(C)(C)C#N)c2)C3=O)cc1OCC1CC1 cannot be ordered by Ki: under 100 nM for the first, under 100 nM for the second.

First: COc1cc(-c2cc(C)c3c(n2)CN(c2cnn(CC(F)(F)F)c2)C3=O)ccn1
Second: CCOCCCOc1ncc(-c2cc(C)c3c(n2)CN(c2cnn(CC(F)(F)F)c2)C3=O)cc1OC
The Ki of the first is lower: under 100 nM for the first, 100 to 490 nM for the second. The first binds more tightly here.

COc1cc(-c2cc(C)c3c(n2)C(C)N(c2cnn(CC(F)F)c2)C3=O)cnc1OC (configuration not stated) and CCOc1cc(-c2cc(C)c3c(n2)C(C)N(c2cnn(CC(F)F)c2)C3=O)cnc1C (configuration not stated) cannot be ordered by Ki: under 100 nM for the first, under 100 nM for the second.

COc1cc(-c2ccc3c(c2)CN(c2ccnc(C)c2)C3=O)cnc1OC and CCCn1cc(N2Cc3cc(-c4cnc(OC)c(OC)c4)ccc3C2=O)cn1 fall in the same range of Ki: 100 to 490 nM for the first, 100 to 490 nM for the second.

COc1cc(-c2ccc3c(n2)C(C)(C)N(c2cn[nH]c2)C3=O)cnc1OC and COc1cc(-c2ccc3c(n2)CN(c2cncs2)C3=O)cnc1OC cannot be ordered by Ki: under 100 nM for the first, under 100 nM for the second.

CCNC(=O)c1cc(-c2cc(C)c3c(n2)C2(CCOC2)N(c2cnn(CC(F)(F)F)c2)C3=O)cnc1OC (configuration not stated) and COc1ncc(-c2cc(C)c3c(n2)C(C)(C)N(c2cnn(CC(F)(F)F)c2)C3=O)cc1C(=O)NC1COC1 cannot be ordered by Ki: under 100 nM for the first, under 100 nM for the second.

Cc1cc(-c2cncc(C(=O)NCC(F)(F)F)c2)nc2c1C(=O)N(c1cnn(CC(F)(F)F)c1)C2(C)C and Cc1cc(-c2cncc(OCC(F)(F)F)c2)nc2c1C(=O)N(c1cnn(CC(F)(F)F)c1)C2(C)C cannot be ordered by Ki: under 100 nM for the first, under 100 nM for the second.

COc1ccc(-c2cc(C)c3c(c2)C(C)N(c2cnn(CC(F)(F)F)c2)C3=O)cc1OC (configuration not stated) and CCOc1ncc(-c2cc(C)c3c(c2)C(C)N(c2cnn(CC(F)(F)F)c2)C3=O)cc1OC (configuration not stated) cannot be ordered by Ki: under 100 nM for the first, under 100 nM for the second.

COc1cc(-c2ccc3c(n2)CN(c2ccc(N4CCN(C)CC4)nc2)C3=O)cnc1OC and COc1cc(-c2ccc3c(n2)CN(c2ccc(N4CCCC(CO)C4)nc2)C3=O)cnc1OC (configuration not stated) cannot be ordered by Ki: under 100 nM for the first, under 100 nM for the second.

COc1cc(-c2ccc3c(n2)C(C)N(c2cccc(C(C)(C)C#N)n2)C3=O)cnc1OC (configuration not stated) and COc1cc(-c2ccc3c(n2)[C@H](C)N(c2cnn(CC(C)(C)O)c2)C3=O)cnc1OC cannot be ordered by Ki: under 100 nM for the first, under 100 nM for the second.

CCC#CCn1cc(N2Cc3cc(-c4cnc(OC)c(OC)c4)ccc3C2=O)cn1 and CCn1ccnc1Cn1cc(N2Cc3nc(-c4cnc(OC)c(OC)c4)ccc3C2=O)cn1 cannot be ordered by Ki: under 100 nM for the first, under 100 nM for the second.

COc1cc(-c2ccc3c(n2)CN(c2ccn(CC(F)F)c(=O)c2)C3=O)cnc1OC and COc1cc(-c2cc(C)c3c(n2)CN(c2ccc(C(C)(C)O)nc2)C3=O)cnc1OC cannot be ordered by Ki: under 100 nM for the first, under 100 nM for the second.

First: COCCOCCOc1ncc(-c2cc(C)c3c(n2)CN(c2cnn(C)c2)C3=O)cc1OC
Second: CCOc1ccnc(N2Cc3nc(-c4cnc(OC)c(OC)c4)cc(C)c3C2=O)c1
The Ki of the first is higher: 100 to 490 nM for the first, under 100 nM for the second. The second binds more tightly here.

COc1ccc(-c2cc(C)c3c(n2)CN(c2cnn(CC#N)c2)C3=O)nc1OC and Cc1cc(-c2cncc(C#N)c2)nc2c1C(=O)N(c1cnn(CC#N)c1)C2 cannot be ordered by Ki: under 100 nM for the first, under 100 nM for the second.

CCOc1ncc(-c2cc(C)c3c(n2)C2(CCCO2)N(c2cnn(CC(F)(F)F)c2)C3=O)cc1OC (configuration not stated) and Cc1cc(-c2cncc(OCC(F)F)c2)nc2c1C(=O)N(c1cnn(CC(F)(F)F)c1)C2(C)C cannot be ordered by Ki: under 100 nM for the first, under 100 nM for the second.

COc1ncc(-c2ccc3c(n2)C(C)N(c2cnn(CC(F)(F)F)c2)C3=O)cc1O (configuration not stated) and COc1cc(-c2ccc3c(n2)C(Cc2ccccc2)N(c2cnn(CC(F)(F)F)c2)C3=O)cnc1OC (configuration not stated) cannot be ordered by Ki: under 100 nM for the first, under 100 nM for the second.

COc1cc(-c2ccc3c(c2)CN(c2cc(C4CC4)[nH]n2)C3=O)cnc1OC and COc1cc(-c2cc(C)c3c(n2)CN(c2ccn([C@H]4CCOC4)n2)C3=O)cnc1F cannot be ordered by Ki: under 100 nM for the first, under 100 nM for the second.

With Cc1cc(-c2cncc(OCC(F)F)c2)nc2c1C(=O)N(c1cnn(CC#N)c1)C2(C)C the Ki was under 100 nM.
